# What was measured:
# [1] = biological target: DNA gyrase subunit A (Escherichia coli K-12, UniProt P0AES4); test: Inhibition of Escherichia coli ATCC 25922 DNA gyrase A assessed as reduction in enzyme-mediated supercoiling of relaxed pBR322 DNA by ethidium bromide staining based gel electrophoresis method
# [2] = biological target: DNA gyrase subunit A (Staphylococcus aureus, UniProt P20831); test: Inhibition of Staphylococcus aureus ATCC 29213 DNA gyrase A assessed as reduction in enzyme-mediated supercoiling of relaxed pBR322 DNA by ethidium bromide staining based gel electrophoresis method
# [3] = biological target: T1, DNA topoisomerase 4 subunit A (Escherichia coli K-12, UniProt P0AFI2); test: Inhibition of Escherichia coli ATCC 25922 DNA topoisomerase 4 subunit ParC assessed as reduction in decatenation of kinetoplast DNA incubated for 30 mins by ethidium bromide staining based gel electrophoresis method
# T1 sequence (P0AFI2 whole entry): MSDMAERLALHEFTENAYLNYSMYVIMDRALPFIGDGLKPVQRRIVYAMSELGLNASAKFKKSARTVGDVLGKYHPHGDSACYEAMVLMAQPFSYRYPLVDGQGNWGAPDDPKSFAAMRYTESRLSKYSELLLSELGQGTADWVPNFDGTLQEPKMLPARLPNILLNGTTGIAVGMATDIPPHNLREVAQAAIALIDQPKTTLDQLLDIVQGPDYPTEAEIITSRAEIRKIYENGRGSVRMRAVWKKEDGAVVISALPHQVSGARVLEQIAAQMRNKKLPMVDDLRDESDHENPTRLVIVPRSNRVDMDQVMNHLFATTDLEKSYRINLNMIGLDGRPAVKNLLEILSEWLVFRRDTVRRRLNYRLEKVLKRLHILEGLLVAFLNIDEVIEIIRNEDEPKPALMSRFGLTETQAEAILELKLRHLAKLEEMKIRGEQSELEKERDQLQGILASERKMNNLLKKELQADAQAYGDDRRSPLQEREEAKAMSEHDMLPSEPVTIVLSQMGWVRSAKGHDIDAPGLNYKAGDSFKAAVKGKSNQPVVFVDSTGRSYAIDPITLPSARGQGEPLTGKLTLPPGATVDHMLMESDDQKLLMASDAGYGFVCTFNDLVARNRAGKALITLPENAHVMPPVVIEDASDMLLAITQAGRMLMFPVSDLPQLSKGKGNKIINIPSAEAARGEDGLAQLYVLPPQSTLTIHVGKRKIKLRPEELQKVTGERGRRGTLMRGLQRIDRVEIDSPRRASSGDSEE
# [4] = biological target: DNA topoisomerase 4 subunit A (Staphylococcus aureus, UniProt P0C1U9); test: Inhibition of Staphylococcus aureus ATCC 29213 DNA topoisomerase 4 subunit ParC assessed as reduction in decatenation of kinetoplast DNA incubated for 30 mins by ethidium bromide staining based gel electrophoresis method
# [5] = test system: Escherichia coli; test: Antibacterial activity against Escherichia coli ATCC 25922 after 16 to 24 hrs by broth microdilution method; format: functional
# [6] = test system: Staphylococcus aureus; test: Antibacterial activity against Staphylococcus aureus ATCC 29213 after 16 to 24 hrs by broth microdilution method; format: functional
# [7] = test system: Staphylococcus aureus; test: Antibacterial activity against Staphylococcus aureus BAA-1720 after 16 to 24 hrs by broth microdilution method; format: functional
# [8] = test system: Pseudomonas aeruginosa; test: Antibacterial activity against Pseudomonas aeruginosa ATCC 27853 after 16 to 24 hrs by CLSI method; format: functional
# Chain of DNA topoisomerase 4 subunit A (Staphylococcus aureus, UniProt P0C1U9) (P0C1U9 whole entry): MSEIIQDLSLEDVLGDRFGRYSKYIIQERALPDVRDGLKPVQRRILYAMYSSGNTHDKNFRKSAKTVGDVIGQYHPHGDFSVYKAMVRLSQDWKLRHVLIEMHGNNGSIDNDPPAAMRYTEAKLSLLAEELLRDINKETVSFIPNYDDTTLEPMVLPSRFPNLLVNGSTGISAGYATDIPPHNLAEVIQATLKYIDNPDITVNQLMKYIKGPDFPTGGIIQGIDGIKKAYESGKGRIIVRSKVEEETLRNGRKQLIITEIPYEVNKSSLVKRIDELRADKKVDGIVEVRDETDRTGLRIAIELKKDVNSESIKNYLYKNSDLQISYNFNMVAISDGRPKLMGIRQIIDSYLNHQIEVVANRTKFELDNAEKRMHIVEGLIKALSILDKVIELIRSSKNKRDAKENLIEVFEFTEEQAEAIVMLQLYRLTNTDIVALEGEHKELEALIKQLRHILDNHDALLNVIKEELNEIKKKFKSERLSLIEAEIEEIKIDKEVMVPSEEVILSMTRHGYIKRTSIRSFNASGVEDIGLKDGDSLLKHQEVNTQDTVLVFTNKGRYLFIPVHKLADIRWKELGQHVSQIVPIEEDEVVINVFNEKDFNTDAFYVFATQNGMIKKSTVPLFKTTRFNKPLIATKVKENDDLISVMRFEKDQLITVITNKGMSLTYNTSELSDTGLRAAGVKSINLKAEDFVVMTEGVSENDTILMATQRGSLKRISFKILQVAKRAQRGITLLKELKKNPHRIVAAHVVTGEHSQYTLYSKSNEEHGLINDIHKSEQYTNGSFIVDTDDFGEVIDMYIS
# Chain of DNA gyrase subunit A (Staphylococcus aureus, UniProt P20831) (P20831 whole entry): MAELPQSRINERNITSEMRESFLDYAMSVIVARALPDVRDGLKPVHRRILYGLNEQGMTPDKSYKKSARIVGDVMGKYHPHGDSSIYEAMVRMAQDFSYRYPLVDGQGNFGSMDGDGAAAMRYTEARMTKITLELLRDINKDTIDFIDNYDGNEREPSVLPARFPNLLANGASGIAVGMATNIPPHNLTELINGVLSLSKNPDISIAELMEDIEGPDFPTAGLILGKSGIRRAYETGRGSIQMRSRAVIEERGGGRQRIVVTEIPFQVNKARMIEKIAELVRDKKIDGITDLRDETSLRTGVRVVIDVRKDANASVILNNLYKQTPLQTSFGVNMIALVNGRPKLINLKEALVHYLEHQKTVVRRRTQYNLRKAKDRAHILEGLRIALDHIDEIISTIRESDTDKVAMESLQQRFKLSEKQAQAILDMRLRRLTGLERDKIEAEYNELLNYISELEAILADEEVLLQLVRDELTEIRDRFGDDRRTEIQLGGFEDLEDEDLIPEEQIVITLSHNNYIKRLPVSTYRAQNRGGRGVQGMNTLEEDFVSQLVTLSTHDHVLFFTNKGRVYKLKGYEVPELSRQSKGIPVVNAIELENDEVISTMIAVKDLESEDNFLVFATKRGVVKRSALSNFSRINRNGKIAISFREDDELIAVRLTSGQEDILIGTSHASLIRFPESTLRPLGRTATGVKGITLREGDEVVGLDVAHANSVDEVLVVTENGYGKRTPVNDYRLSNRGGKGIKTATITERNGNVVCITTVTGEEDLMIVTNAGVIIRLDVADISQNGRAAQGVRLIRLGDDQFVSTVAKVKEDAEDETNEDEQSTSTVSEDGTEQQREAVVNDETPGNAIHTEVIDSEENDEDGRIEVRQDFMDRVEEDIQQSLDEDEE
# Chain of DNA gyrase subunit A (Escherichia coli K-12, UniProt P0AES4) (P0AES4 whole entry): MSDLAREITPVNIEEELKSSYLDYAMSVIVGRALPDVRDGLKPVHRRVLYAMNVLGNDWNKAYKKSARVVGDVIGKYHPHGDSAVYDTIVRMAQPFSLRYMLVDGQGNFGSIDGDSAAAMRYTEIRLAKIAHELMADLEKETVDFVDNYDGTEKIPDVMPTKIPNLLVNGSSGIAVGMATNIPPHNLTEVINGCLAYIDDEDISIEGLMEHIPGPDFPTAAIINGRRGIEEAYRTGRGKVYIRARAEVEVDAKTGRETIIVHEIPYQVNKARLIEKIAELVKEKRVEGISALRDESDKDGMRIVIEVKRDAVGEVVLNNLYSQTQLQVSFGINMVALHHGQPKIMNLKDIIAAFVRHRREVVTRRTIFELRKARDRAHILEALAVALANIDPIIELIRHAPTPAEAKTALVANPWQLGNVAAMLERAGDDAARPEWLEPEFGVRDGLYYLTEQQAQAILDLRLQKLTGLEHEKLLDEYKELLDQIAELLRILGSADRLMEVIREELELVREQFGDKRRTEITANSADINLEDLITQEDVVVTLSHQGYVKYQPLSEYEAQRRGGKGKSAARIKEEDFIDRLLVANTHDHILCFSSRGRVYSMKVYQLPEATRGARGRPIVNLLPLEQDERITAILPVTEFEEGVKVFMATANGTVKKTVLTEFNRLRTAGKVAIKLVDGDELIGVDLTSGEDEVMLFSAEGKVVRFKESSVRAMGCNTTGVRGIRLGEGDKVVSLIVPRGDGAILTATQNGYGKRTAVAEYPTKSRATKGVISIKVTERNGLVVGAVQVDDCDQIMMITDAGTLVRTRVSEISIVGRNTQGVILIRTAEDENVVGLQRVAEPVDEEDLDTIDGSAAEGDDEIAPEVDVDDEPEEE
SMILES,IC50 [1],IC50 [2],IC50 [3],IC50 [4],MIC [5],MIC [6],MIC [7],MIC [8]
COc1cc2ccccc2c(N2CCN(CCCNc3cc(=O)oc4ccccc34)CC2)n1,66 µM,43.3 µM,2.4 µM,137 µM,–,–,–,–
O=c1cc(N[C@H]2C[C@@H](N3CCN(c4nccc5ccccc45)CC3)C2)c2ccccc2o1,1.1 µM,1.2 µM,0.9 µM,> 100 µM,–,–,–,–
O=c1cc(NCCCN2CCN(c3nccc4ccc(F)cc34)CC2)c2ccccc2o1,0.8 µM,2.8 µM,1.7 µM,11.8 µM,–,–,–,–
O=c1cc(NCCCN2CCN(c3nccc4ncccc34)CC2)c2ccccc2o1,40.6 µM,26.8 µM,29.3 µM,83.8 µM,–,–,–,–
O=c1cc(NCCCN2CCN(c3nccc4ccc(F)cc34)CC2)c2c(o1)CCOC2,6.3 µM,19 µM,59 µM,4 µM,–,–,–,–
Cc1c(NCCCN2CCN(c3nccc4ccc(F)cc34)CC2)c2ccccc2oc1=O,1.3 µM,16.9 µM,2.2 µM,> 100 µM,–,–,–,–
O=c1cc(NC[C@@H](O)CN2CCN(c3nccc4ccc(F)cc34)CC2)c2ccccc2o1,1.1 µM,1.6 µM,1.3 µM,3 µM,2 µg/mL,1 µg/mL,1 µg/mL,4 µg/mL
Cc1cccc2oc(=O)cc(NCCCN3CCN(c4nccc5ccc(F)cc45)CC3)c12,2.4 µM,2.1 µM,3.1 µM,> 100 µM,–,–,–,–
O=c1cc(NCCCN2CCN(c3nccc4ccccc34)CC2)c2cc(F)ccc2o1,1.2 µM,3.9 µM,1.3 µM,3.1 µM,0.5 µg/mL,4 µg/mL,2 µg/mL,–
O=c1cc(NCCCN2CCN(c3nccc4ccc(F)cc34)CC2)c2c(o1)CCS(=O)(=O)C2,2.9 µM,7.8 µM,52.5 µM,2.1 µM,–,–,–,–
O=c1cc(OCCCN2CCN(c3nccc4ccccc34)CC2)c2ccccc2o1,6.2 µM,28.3 µM,22.6 µM,> 100 µM,–,–,–,–
Cc1ccc2ccnc(N3CCN(CCCNc4cc(=O)oc5ccccc45)CC3)c2c1,2.6 µM,9.6 µM,3.8 µM,52 µM,–,–,–,–
O=c1nc(NC[C@@H](O)CN2CCN(c3nccc4ccc(F)cc34)CC2)c2ccccc2o1,1.5 µM,0.6 µM,0.4 µM,0.3 µM,4 µg/mL,0.25 µg/mL,1 µg/mL,> 8 µg/mL
Cc1cc2ccccc2c(N2CCN(CCCNc3cc(=O)oc4ccccc34)CC2)n1,4.8 µM,33.1 µM,–,7.5 µM,–,–,–,–
O=c1cc(NC[C@H](O)CN2CCN(c3nccc4ccc(F)cc34)CC2)c2ccccc2o1,1.8 µM,1.5 µM,1.1 µM,1.7 µM,4 µg/mL,1 µg/mL,0.5 µg/mL,8 µg/mL
O=c1cc(NCCCN2CCN(c3nc(F)cc4ccccc34)CC2)c2ccccc2o1,0.9 µM,2.6 µM,1.9 µM,7.1 µM,4 µg/mL,4 µg/mL,2 µg/mL,4 µg/mL

SMILES,IC50 [1],IC50 [2],IC50 [3],IC50 [4],MIC [5],MIC [6],MIC [7],MIC [8]
O=c1cc(NCCCN2CCN(c3nc(Cl)cc4ccccc34)CC2)c2ccccc2o1,2.3 µM,12.1 µM,3.2 µM,10.2 µM,–,–,–,–
O=c1cc(NCCN2CCN(c3nccc4ccccc34)CC2)c2ccccc2o1,–,6.9 µM,6.7 µM,> 100 µM,–,–,–,–
O=C(CCN1CCN(c2nccc3ccc(F)cc23)CC1)Nc1cc(=O)oc2ccccc12,1.1 µM,10.5 µM,0.7 µM,39.7 µM,–,–,–,–
O=C(NCCCN1CCN(c2nccc3ccccc23)CC1)c1ccccc1,112 µM,20 µM,130 µM,489 µM,256 µg/mL,16 µg/mL,32 µg/mL,–
O=c1cc(NCCCN2CCN(c3nccc4ccccc34)CC2)c2c(o1)CCCC2,7.6 µM,3.7 µM,7.8 µM,52.8 µM,–,–,–,–
O=c1cc(N[C@H]2C[C@H](N3CCN(c4nccc5ccccc45)CC3)C2)c2ccccc2o1,2.1 µM,5.6 µM,2.6 µM,11.6 µM,–,–,–,–
O=c1cc(NCCCN2CCN(c3nccc4ccc(F)cc34)CC2)c2c(o1)CCNC2,22.8 µM,164 µM,7.3 µM,> 100 µM,–,–,–,–
O=C1CN(c2nccc3ccccc23)CCN1CCCNc1cc(=O)oc2ccccc12,46.5 µM,> 100 µM,28.5 µM,> 100 µM,–,–,–,–
O=c1cc(NCCCN2CCN(c3nccc4ccccc34)CC2)c2cc(Cl)ccc2o1,0.6 µM,5.2 µM,1.2 µM,5.5 µM,0.5 µg/mL,8 µg/mL,4 µg/mL,4 µg/mL
COc1ccc2ccnc(N3CCN(CCCNc4cc(=O)oc5ccccc45)CC3)c2c1,3.2 µM,1.1 µM,0.9 µM,6.7 µM,4 µg/mL,2 µg/mL,1 µg/mL,8 µg/mL
O=c1cc(NCCCN2CCN(c3nccc4ccc(F)cc34)CC2)c2c(o1)CCSC2,1.3 µM,1.3 µM,8 µM,15 µM,–,–,–,–
CN(C)c1ccc2ccnc(N3CCN(CCCNc4cc(=O)oc5ccccc45)CC3)c2c1,5.6 µM,4.6 µM,8.8 µM,11.2 µM,–,–,–,–
CN(CCCN1CCN(c2nccc3ccccc23)CC1)c1cc(=O)oc2ccccc12,31.7 µM,12.1 µM,22.9 µM,> 100 µM,–,–,–,–
N#Cc1cc2ccccc2c(N2CCN(CCCNc3cc(=O)oc4ccccc34)CC2)n1,5.6 µM,3.6 µM,3.9 µM,> 100 µM,–,–,–,–
O=c1cc(NC2CCN(CCCc3ccccc3)CC2)c2cc(Cl)ccc2o1,> 800 µM,27.8 µM,4.1 µM,100 to 200 µM,–,–,–,–

# Reference: ChEMBL document CHEMBL4373693, “Virtual Screening Approach and Investigation of Structure-Activity Relationships To Discover Novel Bacterial Topoisomerase Inhibitors Targeting Gram-Positive and Gram-Negative Pathogens” (J Med Chem, 2019)
